Data: ChEMBL document CHEMBL1201862, “PubChem BioAssay data set” (2004)
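Where inhibition never reached the appropriate level, the endpoint shown equals the highest concentration tested. Otherwise, values were interpolated linearly from a five-concentration, 48-hour dose response in 96-well plates. GI50 = concentration required for 50% inhibition of growth.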 Calls of active or inactive are those of the source. No stated cut-off is given here; in the data, active = GI50 up to about 1.1 µM and inactive = higher.

How the values were obtained:
Assay in all cases: DTP human tumour cell line panel, 48 h
RXF 393 = test system: RXF 393
NCI-H460 = test system: NCI-H460
MCF7 = test system: MCF7
SR = test system: SR
HCT-116 = test system: HCT-116
ACHN = test system: ACHN
OVCAR-5 = test system: OVCAR-5
PC-3 = test system: PC-3
HOP-62 = test system: HOP-62
M14 = test system: M14
SF-295 = test system: SF-295
HL-60 = test system: HL-60
MOLT-4 = test system: MOLT-4
A498 = test system: A498
MDA-N = test system: MDA-N
SW-620 = test system: SW-620
SK-OV-3 = test system: SK-OV-3
NCI-H522 = test system: NCI-H522
SF-539 = test system: SF-539
SNB-75 = test system: SNB-75

Structure (SMILES) | GI50 (RXF 393) | GI50 (NCI-H460) | GI50 (MCF7) | GI50 (SR) | GI50 (HCT-116) | GI50 (ACHN) | GI50 (OVCAR-5) | GI50 (PC-3) | GI50 (HOP-62) | GI50 (M14) | GI50 (SF-295) | GI50 (HL-60) | GI50 (MOLT-4) | GI50 (A498) | GI50 (MDA-N) | GI50 (SW-620) | GI50 (SK-OV-3) | GI50 (NCI-H522) | GI50 (SF-539) | GI50 (SNB-75)
Cc1ccc(Nc2cn(COCc3ccccc3)c(=O)[nH]c2=O)cc1 | > 100 µM (inactive) | > 100 µM (inactive) | > 100 µM (inactive) | > 100 µM (inactive) | > 100 µM (inactive) | 37 µM (inactive) | > 100 µM (inactive) | > 100 µM (inactive) | 29.4 µM (inactive) | > 100 µM (inactive) | 39.7 µM (inactive) | > 100 µM (inactive) | > 100 µM (inactive) | > 100 µM (inactive) | > 100 µM (inactive) | > 100 µM (inactive) |  |  |  | 
Nc1ccc2nc(N)n[n+]([O-])c2c1 |  | > 100 µM (inactive) | > 100 µM (inactive) | > 100 µM (inactive) | > 100 µM (inactive) | > 100 µM (inactive) | > 100 µM (inactive) | > 100 µM (inactive) | > 100 µM (inactive) | > 100 µM (inactive) | 10 µM (inactive) | > 100 µM (inactive) | > 100 µM (inactive) | > 100 µM (inactive) | > 100 µM (inactive) | > 100 µM (inactive) | > 100 µM (inactive) | > 100 µM (inactive) | > 100 µM (inactive) | 92.7 µM (inactive)
Clc1ccc2c(c1)N(CCCN1CCCC13CCCCC3)c1ccccc1S2 | 5.93 µM (inactive) | 7.48 µM (inactive) | 14.3 µM (inactive) | 4.39 µM (inactive) | 13.9 µM (inactive) | 20.3 µM (inactive) | 17.3 µM (inactive) | 8.04 µM (inactive) | 16.3 µM (inactive) | 13.6 µM (inactive) | 15.6 µM (inactive) | 0.152 µM (active) | 3.76 µM (inactive) | 16 µM (inactive) | 13.1 µM (inactive) | 14.9 µM (inactive) | 20.8 µM (inactive) | 10.6 µM (inactive) | 17.2 µM (inactive) | 
CCOC(=O)N1CCN(c2ccc3ccc(N)nc3n2)CC1 |  | 71.6 µM (inactive) | > 100 µM (inactive) | > 100 µM (inactive) | > 100 µM (inactive) | > 100 µM (inactive) | > 100 µM (inactive) | > 100 µM (inactive) | > 100 µM (inactive) | > 100 µM (inactive) | > 100 µM (inactive) | > 100 µM (inactive) | 74.1 µM (inactive) |  | > 100 µM (inactive) | > 100 µM (inactive) | > 100 µM (inactive) | > 100 µM (inactive) | > 100 µM (inactive) | > 100 µM (inactive)
C/N=c1/oc2ccccc2cc1C(N)=O | > 100 µM (inactive) | > 100 µM (inactive) | 87.7 µM (inactive) | > 100 µM (inactive) | > 100 µM (inactive) | > 100 µM (inactive) |  | > 100 µM (inactive) | > 100 µM (inactive) | > 100 µM (inactive) | > 100 µM (inactive) | > 100 µM (inactive) | > 100 µM (inactive) |  | > 100 µM (inactive) | > 100 µM (inactive) | > 100 µM (inactive) | > 100 µM (inactive) | > 100 µM (inactive) | > 100 µM (inactive)
O=C(CCl)Nc1cc(Cl)c(Cl)cc1Cl | 2.65 µM (inactive) | 1.73 µM (inactive) | 2.07 µM (inactive) | 0.644 µM (active) | 1.59 µM (inactive) | 2.22 µM (inactive) | 2.12 µM (inactive) | 1.76 µM (inactive) | 2.15 µM (inactive) | 1.48 µM (inactive) | 5.26 µM (inactive) | 2.82 µM (inactive) | > 10 µM (inactive) | 5.15 µM (inactive) | 1.69 µM (inactive) | 2.58 µM (inactive) | > 10 µM (inactive) | 0.505 µM (active) | 1.67 µM (inactive) | 
Cc1cccc(-c2cc(O)c3cccnc3n2)c1 | 6.24 µM (inactive) | 0.475 µM (active) | 0.378 µM (active) | 0.0946 µM (active) | 0.385 µM (active) | 18.7 µM (inactive) | 2.96 µM (inactive) | 1.12 µM (inactive) | 17.6 µM (inactive) | 0.555 µM (active) | 1.36 µM (inactive) | 0.128 µM (active) | 0.902 µM (active) |  | 0.0431 µM (active) | 0.431 µM (active) | 0.569 µM (active) | 0.553 µM (active) | 0.92 µM (active) | 1.26 µM (inactive)
